ChEMBL document CHEMBL1158604, “New pyrazolo[1,5a]pyrimidines as orally active inhibitors of Lck” (Bioorg Med Chem Lett, 2010)
pIC50: −log10 of the molar value. Each block holds one compound with its values, some of them ahead of it. Activity calls are given as the source filed them. The calls are words filed in the database; no cut-off is given here.

Assays:
[1] = molecular target: Proto-oncogene tyrosine-protein kinase Src (Homo sapiens, UniProt P12931)
[2] = molecular target: Tyrosine-protein kinase HCK (Homo sapiens, UniProt P08631)
[3] = molecular target: Vascular endothelial growth factor receptor 2 (Homo sapiens, UniProt P35968)
Liver microsomes = conditions: rat
Description: Clearance in rat liver microsomes

in vitro = conditions: rat, liver microsomes
Description: Half life in rat liver microsomes

[4] = molecular target: T1, Tyrosine-protein kinase Lck (Homo sapiens, UniProt P06239)
Mus musculus [5] = assay: Immunosuppressive activity in BALB/c mouse assessed as concanavalin A-induced T cell activation at 100 mg/kg, po relative to control; format: functional, organism-based; set-up: dose 100 mg/kg
[6] = molecular target: Cyclin-dependent kinase 2/cyclin A (Homo sapiens, UniProt P24941); assay: Inhibition of CDK2/cyclinA; format: protein-complex assay
[7] = molecular target: Tyrosine-protein kinase JAK2 (Homo sapiens, UniProt O60674); assay: Inhibition of JAK2
[8] = molecular target: Tyrosine-protein kinase ABL1 (Homo sapiens, UniProt P00519); assay: Inhibition of ABL
Mus musculus [9] = assay: Immunosuppressive activity in BALB/c mouse assessed as CD3 antibody-induced IL2 production at 10 mg/kg, po relative to control; format: functional
Angiopoietin-1 receptor = Angiopoietin-1 receptor (Homo sapiens, UniProt Q02763); assay: Inhibition of tie2
[10] = molecular target: Tyrosine-protein kinase JAK3 (Homo sapiens, UniProt P52333); assay: Inhibition of JAK3
Mus musculus [11] = assay: Immunosuppressive activity in BALB/c mouse assessed as CD3 antibody-induced IL2 production at 30 mg/kg, po relative to control; format: functional
[12] = molecular target: Receptor tyrosine-protein kinase erbB-2 (Homo sapiens, UniProt P04626); assay: Inhibition of Her2
[13] = molecular target: T1, Tyrosine-protein kinase Lck; assay: Inhibition of LCK in human Jurkat cells assessed as ZAP70 phosphorylation by FACS assay; format: cell-based
[14] = molecular target: Proto-oncogene tyrosine-protein kinase receptor Ret (Homo sapiens, UniProt P07949); assay: Inhibition of Ret
[15] = Inhibition of cABL T315 mutant
[16] = Volume of distribution in rat; format: ADME, organism-based; conditions: in vivo
[17] = molecular target: ALK tyrosine kinase receptor (Homo sapiens, UniProt Q9UM73); assay: Inhibition of Alk
[18] = molecular target: Fibroblast growth factor receptor 3 (Homo sapiens, UniProt P22607); assay: Inhibition of FGFR3K
[19] = molecular target: Tyrosine-protein kinase ZAP-70 (Homo sapiens, UniProt P43403); assay: Inhibition of ZAP70
[20] = molecular target: Platelet-derived growth factor receptor alpha (Homo sapiens, UniProt P16234); assay: Inhibition of PDGFRalpha
[21] = molecular target: Mast/stem cell growth factor receptor Kit (Homo sapiens, UniProt P10721); assay: Inhibition of cKIt
[22] = Half life in rat; format: ADME, organism-based; conditions: in vivo
[23] = molecular target: Hepatocyte growth factor receptor (Homo sapiens, UniProt P08581); assay: Inhibition of cMet
Insulin receptor = Insulin receptor (Homo sapiens, UniProt P06213); assay: Inhibition of INSR
[24] = Clearance in rat; format: ADME, organism-based; conditions: in vivo
[25] = molecular target: Insulin-like growth factor 1 receptor (Homo sapiens, UniProt P08069); assay: Inhibition of IGF1R
[26] = molecular target: RAC-alpha serine/threonine-protein kinase (Homo sapiens, UniProt P31749); assay: Inhibition of PKBalpha
Mus musculus [27] = assay: Immunosuppressive activity in BALB/c mouse assessed as CD3 antibody-induced IL2 production at 100 mg/kg, po relative to control; format: functional
[28] = molecular target: Tyrosine-protein kinase JAK1 (Homo sapiens, UniProt P23458); assay: Inhibition of JAK1
[29] = Oral bioavailability in rat; format: ADME, organism-based; conditions: in vivo

SMILES: CN1CCN(c2cccc(-c3cnn4c(N)c(-c5ccc(NC(=O)Oc6ccccc6)cc5)cnc34)c2)CC1
- pIC50 [1]: 6.16
- pIC50 [2]: 6.71
- pIC50 [3]: 5.39

- pIC50 [1]: 5.77
- CL (Liver microsomes): 612.5 µL/min
- pIC50 [2]: 6.23
- pIC50 [3]: 5.27
- half-life (in vitro): 2.3 min
SMILES: CC(C)COC(=O)Nc1ccc(-c2cnc3c(-c4cccc(N5CCN(C)CC5)c4)cnn3c2N)cc1

- pIC50 [1]: 8.70
- pIC50 [2]: 8.10
- pIC50 [3]: 7.02
- pIC50 [4]: 8.10
SMILES: CN1CCN(c2ccc(-c3cnn4c(N)c(-c5cccc(O)c5)cnc34)cc2)CC1

- pIC50 [1]: < 6.00
- pIC50 [2]: < 6.00
- pIC50 [3]: 6.30
- pIC50 [4]: < 6.00
SMILES: Cc1nn2c(N)c(-c3cccc(O)c3)cnc2c1-c1ccc(N2CCN(C)CC2)cc1

SMILES: CN1CCN(c2ccc(-c3cnn4c(N)c(-c5ccc(NC(=O)Oc6ccccc6)cc5)cnc34)cc2)CC1
- pIC50 [1]: 6.40
- pIC50 [2]: 7.06
- pIC50 [3]: 6.00

- pIC50 [1]: 6.26
- pIC50 [2]: 6.96
- pIC50 [3]: 5.22
SMILES: CN1CCN(c2cccc(-c3cnn4c(N)c(-c5ccc(NC(=O)N(C)C6CCCCC6)cc5)cnc34)c2)CC1

- pIC50 [1]: 6.12
- CL (Liver microsomes): 11.2 µL/min
- pIC50 [2]: 6.57
- pIC50 [3]: 5.72
- half-life (in vitro): 124 min
- pIC50 [4]: 8.15
SMILES: CC(C)COC(=O)Nc1ccc(-c2cnc3c(-c4cccc(N5CCN(C(=O)CN)CC5)c4)cnn3c2N)cc1

- pIC50 [1]: 6.34
- pIC50 [2]: 6.34
- pIC50 [3]: 5.47
- pIC50 [4]: 7.64
SMILES: Cc1cc(NC(=O)OCC(C)C)ccc1-c1cnc2c(-c3cccc(N4CCN(C)CC4)c3)cnn2c1N

- pIC50 [1]: 6.85
- pIC50 [2]: 7.85
- pIC50 [3]: 5.99
SMILES: CN1CCN(c2ccc(-c3cnn4c(N)c(-c5ccc(NC(=O)CCC6CCCC6)cc5)cnc34)cc2)CC1

- pIC50 [1]: < 6.00
- pIC50 [2]: < 6.00
- pIC50 [3]: 5.27
- pIC50 [4]: 7.55
SMILES: CN1CCN(c2cccc(-c3cnn4c(N)c(-c5ccc(NS(=O)(=O)c6cccc(Cl)c6Cl)cc5)cnc34)c2)CC1

- pIC50 [1]: 6.84
- pIC50 [2]: 7.68
SMILES: CN1CCN(c2ccc(-c3cnn4c(N)c(-c5ccc(NC(=O)NCC6CCCCC6)cc5)cnc34)cc2)CC1

- pIC50 [1]: 6.00
- pIC50 [2]: 6.76
SMILES: CN1CCN(c2cccc(-c3cnn4c(N)c(-c5ccc(NC(=O)Nc6ccccc6Cl)cc5)cnc34)c2)CC1

- pIC50 [1]: 6.40
- pIC50 [2]: 7.07
- pIC50 [3]: 5.89
- pIC50 [4]: 7.44
SMILES: CN1CCN(c2ccc(-c3cnn4c(N)c(-c5ccc(O)cc5)cnc34)cc2)CC1

- pIC50 [1]: 6.00
- pIC50 [2]: 6.46
- pIC50 [3]: 5.66
- pIC50 [4]: 7.43
SMILES: COCCN1CCN(c2ccc(-c3cnn4c(N)c(-c5ccc(NC(=O)OCC(C)C)cc5)cnc34)cc2)CC1

- pIC50 [1]: 6.00
- pIC50 [2]: 6.59
- pIC50 [3]: 5.08
SMILES: CN1CCN(c2ccc(-c3cnn4c(N)c(-c5ccc(NC(=O)c6ccc(C(F)(F)F)cc6)cc5)cnc34)cc2)CC1

- pIC50 [1]: 6.30
- pIC50 [2]: 6.75
- pIC50 [3]: 6.36
SMILES: CN1CCN(c2ccc(-c3cnn4c(N)c(-c5ccc(NC(=O)N(C)C6CCCCC6)cc5)cnc34)cc2)CC1

- pIC50 [1]: < 6.00
- pIC50 [2]: < 6.00
- pIC50 [3]: < 5.00
- pIC50 [4]: 6.94
SMILES: Cc1nc2c(-c3cccc(N4CCN(C)CC4)c3)cnn2c(N)c1-c1ccc(NC(=O)OCC(C)C)cc1

- pIC50 [1]: 6.18
- pIC50 [6]: < 5.00
- pIC50 [7]: < 5.00
- pIC50 [8]: 7.40
- pIC50 (Angiopoietin-1 receptor): 6.00
- CL (Liver microsomes): 161.2 µL/min
- pIC50 [10]: < 5.00
- pIC50 [12]: < 5.00
- pIC50 [13]: 6.97
- pIC50 [14]: 5.33
- pIC50 [15]: 5.49
- Vd [16]: 6.42 L/kg
- pIC50 [17]: < 5.00
- pIC50 [2]: 6.74
- pIC50 [18]: < 5.00
- pIC50 [19]: < 5.00
- pIC50 [20]: 7.13
- pIC50 [21]: 7.05
- half-life [22]: 342 min
- pIC50 [3]: 5.37
- pIC50 [23]: < 5.00
- pIC50 (Insulin receptor): < 5.00
- clearance [24]: 32.1 mL/min/kg
- pIC50 [25]: < 5.00
- half-life (in vitro): 8.6 min
- pIC50 [26]: < 5.00
- pIC50 [4]: 7.66
- pIC50 [28]: < 5.00
- bioavailability [29]: 95%
SMILES: CC(C)COC(=O)Nc1ccc(-c2cnc3c(-c4ccc(N5CCN(C)CC5)cc4)cnn3c2N)cc1
- Activity (Mus musculus [5]): Active
- inhibition in vivo at 10 mg/kg (Mus musculus [9]): -7%
- inhibition in vivo at 30 mg/kg (Mus musculus [11]): 21%
- inhibition in vivo at 100 mg/kg (Mus musculus [27]): 57%

- pIC50 [1]: < 6.00
- CL (Liver microsomes): 58.4 µL/min
- pIC50 [2]: 6.17
- pIC50 [3]: < 5.00
- half-life (in vitro): 23.7 min
- pIC50 [4]: 6.68
SMILES: CC(C)COC(=O)Nc1ccc(-c2cnc3c(-c4cccc(N5CCN(S(C)(=O)=O)CC5)c4)cnn3c2N)cc1

- pIC50 [1]: 6.64
- pIC50 [2]: 7.15
- pIC50 [3]: 6.89
SMILES: CN1CCN(c2cccc(-c3cnn4c(N)c(-c5ccc(NC(=O)NCC6CCCCC6)cc5)cnc34)c2)CC1

- pIC50 [1]: 6.87
- pIC50 [2]: 7.43
- pIC50 [3]: 6.16
SMILES: CN1CCN(c2cccc(-c3cnn4c(N)c(-c5ccc(NC(=O)CCC6CCCC6)cc5)cnc34)c2)CC1

- pIC50 [1]: 6.35
- pIC50 [2]: 6.47
- pIC50 [3]: 6.33
- pIC50 [4]: 7.52
SMILES: CN1CCN(c2cccc(-c3cnn4c(N)c(-c5ccc(O)cc5)cnc34)c2)CC1

- pIC50 [1]: < 6.00
- pIC50 [2]: < 6.00
- pIC50 [3]: 5.04
- pIC50 [4]: 6.26
SMILES: COc1cc(-c2cnc3c(-c4cccc(N5CCN(C)CC5)c4)cnn3c2N)ccc1NC(=O)OCC(C)C

SMILES: CC(C)COC(=O)Nc1ccc(-c2cnc3c(-c4cccc(N5CCNCC5)c4)cnn3c2N)cc1
- pIC50 [1]: 6.19
- CL (Liver microsomes): 29 µL/min
- pIC50 [2]: 6.51
- pIC50 [3]: 5.68
- half-life (in vitro): 48 min
- pIC50 [4]: 8.15

- pIC50 [1]: < 6.00
- pIC50 [2]: 6.53
- pIC50 [3]: 5.64
SMILES: CN1CCN(c2cccc(-c3cnn4c(N)c(-c5ccc(NC(=O)c6ccc(C(F)(F)F)cc6)cc5)cnc34)c2)CC1

- pIC50 [1]: < 6.00
- pIC50 [2]: 6.67
SMILES: CN1CCN(c2ccc(-c3cnn4c(N)c(-c5ccc(NC(=O)Nc6ccccc6Cl)cc5)cnc34)cc2)CC1

SMILES: CC(C)COC(=O)Nc1ccc(-c2cnc3c(-c4cccc(N5CCOCC5)c4)cnn3c2N)cc1
- pIC50 [1]: < 6.00
- pIC50 [2]: < 6.00
- pIC50 [3]: 5.13
- pIC50 [4]: 6.16
